This passage reports mutagenic call results from PubChem BioAssay AID1259407 (Chemical Carcinogenesis Research Information System (CCRIS), 2018).

The test system of this data set is CCRIS mutagenicity, Ames/micronucleus/aberration tests. The experiment in a line: CCRIS mutagenicity studies.
The mark [1] stands for this setting: Test System: AMES SALMONELLA TYPHIMURIUM, Strain/Indicator: TA98, Metabolic Activation: NONE, Method: STANDARD PLATE.
The mark [2] stands for this setting: Test System: AMES SALMONELLA TYPHIMURIUM, Strain/Indicator: TA100, Metabolic Activation: NONE, Method: STANDARD PLATE.
The mark [3] stands for this setting: Test System: AMES SALMONELLA TYPHIMURIUM, Strain/Indicator: TA1538, Metabolic Activation: NONE, Method: STANDARD PLATE.

The source made the active and inactive calls. No rule for the calls is given here.

With `COc1ccccc1NCSC`, the mutagenic call is, setting by setting: (Test System: AMES SALMONELLA TYPHIMURIUM, Strain/Indicator: TA98, Metabolic Activation: NONE, Method: SPOT TEST) “inactive; negative”; (Test System: AMES SALMONELLA TYPHIMURIUM, Strain/Indicator: TA98, Metabolic Activation: RAT, LIVER, S-9, AROCLOR 1254, Method: SPOT TEST) “active; positive”; (Test System: AMES SALMONELLA TYPHIMURIUM, Strain/Indicator: TA100, Metabolic Activation: NONE, Method: SPOT TEST) “active; positive”; (Test System: AMES SALMONELLA TYPHIMURIUM, Strain/Indicator: TA100, Metabolic Activation: RAT, LIVER, S-9, AROCLOR 1254, Method: SPOT TEST) “active; positive”; (Test System: AMES SALMONELLA TYPHIMURIUM, Strain/Indicator: TA102, Metabolic Activation: NONE, Method: SPOT TEST) “inactive; negative”; (Test System: AMES SALMONELLA TYPHIMURIUM, Strain/Indicator: TA102, Metabolic Activation: RAT, LIVER, S-9, AROCLOR 1254, Method: SPOT TEST) “active; positive”.

Take `O=C(Cl)C(Cl)c1ccccc1` (stereo not given): the mutagenic call is, setting by setting: (Test System: AMES SALMONELLA TYPHIMURIUM, Strain/Indicator: TA98, Metabolic Activation: NONE, Method: PREINCUBATION) “active; positive”; (Test System: AMES SALMONELLA TYPHIMURIUM, Strain/Indicator: TA98, Metabolic Activation: RAT LIVER S-9, PCB, Method: PREINCUBATION) “active; positive”; (Test System: AMES SALMONELLA TYPHIMURIUM, Strain/Indicator: TA100, Metabolic Activation: NONE, Method: PREINCUBATION) “active; positive”; (Test System: AMES SALMONELLA TYPHIMURIUM, Strain/Indicator: TA100, Metabolic Activation: RAT LIVER S-9, PCB, Method: PREINCUBATION) “active; positive”; (Test System: AMES SALMONELLA TYPHIMURIUM, Strain/Indicator: TA104, Metabolic Activation: NONE, Method: PREINCUBATION) “active; positive”; (Test System: AMES SALMONELLA TYPHIMURIUM, Strain/Indicator: TA104, Metabolic Activation: RAT LIVER S-9, PCB, Method: PREINCUBATION) “active; positive”. Also, the mutagenic call (Test System: E.COLI, Strain/Indicator: WP2 UVRA, Metabolic Activation: NONE, Method: PREINCUBATION) was “active; positive” and the mutagenic call (Test System: E.COLI, Strain/Indicator: WP2 UVRA, Metabolic Activation: RAT LIVER S-9, PCB, Method: PREINCUBATION) was “active; positive”.

As for `COc1cc(Cc2cnc(N)nc2N)cc(OC)c1OC`, the mutagenic call is, setting by setting: (Test System: AMES SALMONELLA TYPHIMURIUM, Strain/Indicator: TA97A, Metabolic Activation: NONE, Method: STANDARD PLATE) “inactive; negative”; (Test System: AMES SALMONELLA TYPHIMURIUM, Strain/Indicator: TA97A, Metabolic Activation: RAT, LIVER, S-9, PHENOBARBITAL, Method: STANDARD PLATE) “inactive; negative”; under setting [1], “active; positive”; (Test System: AMES SALMONELLA TYPHIMURIUM, Strain/Indicator: TA98, Metabolic Activation: RAT, LIVER, S-9, PHENOBARBITAL, Method: STANDARD PLATE) “active; positive”; under setting [2], “inactive; negative”; (Test System: AMES SALMONELLA TYPHIMURIUM, Strain/Indicator: TA100, Metabolic Activation: RAT, LIVER, S-9, PHENOBARBITAL, Method: STANDARD PLATE) “inactive; negative”. Besides, the mutagenic call is “inactive; negative” (Test System: AMES SALMONELLA TYPHIMURIUM, Strain/Indicator: TA102, Metabolic Activation: NONE, Method: STANDARD PLATE); “inactive; negative” (Test System: AMES SALMONELLA TYPHIMURIUM, Strain/Indicator: TA102, Metabolic Activation: RAT, LIVER, S-9, PHENOBARBITAL, Method: STANDARD PLATE); “active; positive” under setting [3]; “active; positive” (Test System: AMES SALMONELLA TYPHIMURIUM, Strain/Indicator: TA1538, Metabolic Activation: RAT, LIVER, S-9, PHENOBARBITAL, Method: STANDARD PLATE); “inactive; negative” (Test System: E.COLI, Strain/Indicator: WP2UVRA/PKM101, Metabolic Activation: NONE, Method: PREINCUBATION); “inactive; negative” (Test System: E.COLI, Strain/Indicator: WP2UVRA/PKM101, Metabolic Activation: RAT LIVER S-9, PHENOBARBITAL AND 5,6-BENZOFLAVONE, Method: PREINCUBATION).

As to `C=Cc1ccccn1`, the mutagenic call was “active; positive (structural changes)” (End Point: In vitro chromosomal aberrations, Test System: Chinese hamster lung (CHL/IU) cells, Metabolic Activation: Rat, Liver, S9, Phenobarbital and 5,6-benzoflavone); “inactive; negative” under setting [1]; “inactive; negative” (Test System: AMES SALMONELLA TYPHIMURIUM, Strain/Indicator: TA98, Metabolic Activation: RAT, LIVER, S-9, AROCLOR 1254, Method: STANDARD PLATE); “inactive; negative” under setting [2]; “inactive; negative” (Test System: AMES SALMONELLA TYPHIMURIUM, Strain/Indicator: TA100, Metabolic Activation: RAT, LIVER, S-9, AROCLOR 1254, Method: STANDARD PLATE); “inactive; negative” (Test System: AMES SALMONELLA TYPHIMURIUM, Strain/Indicator: TA1535, Metabolic Activation: NONE, Method: STANDARD PLATE). For the same compound, the mutagenic call (Test System: AMES SALMONELLA TYPHIMURIUM, Strain/Indicator: TA1535, Metabolic Activation: RAT, LIVER, S-9, AROCLOR 1254, Method: STANDARD PLATE) was “inactive; negative”; the mutagenic call under setting [3] is “inactive; negative”; the mutagenic call (Test System: AMES SALMONELLA TYPHIMURIUM, Strain/Indicator: TA1538, Metabolic Activation: RAT, LIVER, S-9, AROCLOR 1254, Method: STANDARD PLATE) is “inactive; negative”; the mutagenic call (Test System: Ames Salmonella typhimurium, Strain/Indicator: TA98, Metabolic Activation: None, Method: Preincubation) is “inactive; negative”; the mutagenic call (Test System: Ames Salmonella typhimurium, Strain/Indicator: TA98, Metabolic Activation: Rat, Liver, S9, Sodium phenobarbital and 5,6-benzoflavone (10%), Method: Preincubation) is “inactive; negative”; the mutagenic call (Test System: Ames Salmonella typhimurium, Strain/Indicator: TA100, Metabolic Activation: None, Method: Preincubation) was “inactive; negative”. In addition, the mutagenic call runs as follows: (Test System: Ames Salmonella typhimurium, Strain/Indicator: TA100, Metabolic Activation: Rat, Liver, S9, Sodium phenobarbital and 5,6-benzoflavone (10%), Method: Preincubation) “inactive; negative”; (Test System: Ames Salmonella typhimurium, Strain/Indicator: TA1535, Metabolic Activation: None, Method: Preincubation) “inactive; negative”; (Test System: Ames Salmonella typhimurium, Strain/Indicator: TA1535, Metabolic Activation: Rat, Liver, S9, Sodium phenobarbital and 5,6-benzoflavone (10%), Method: Preincubation) “inactive; negative”; (Test System: Ames Salmonella typhimurium, Strain/Indicator: TA1537, Metabolic Activation: None, Method: Preincubation) “inactive; negative”; (Test System: Ames Salmonella typhimurium, Strain/Indicator: TA1537, Metabolic Activation: Rat, Liver, S9, Sodium phenobarbital and 5,6-benzoflavone (10%), Method: Preincubation) “inactive; negative”; (Test System: E. coli, Strain/Indicator: WP2uvrA/pKM101, Metabolic Activation: Rat, Liver, S9, Sodium phenobarbital and 5,6-benzoflavone (10%), Method: Preincubation) “active; positive”. For the same compound, the mutagenic call (Test System: UDS RAT HEPATOCYTES, Strain/Indicator: THY INCORP, Metabolic Activation: NONE) was “inactive; negative”.
